Here are results for eight molecules from patent publication US12595230B2, “Substituted 6,7-dihydro-5H-benzo[7]annulene compounds and their derivatives, processes for their preparation and therapeutic uses thereof” (Sanofi, priority 2020, dated 2026).

This experiment addresses T1, ERα (Homo sapiens, UniProt P03372).
T1 construct: host or cells: MCF7
T1 sequence (P03372 1-595): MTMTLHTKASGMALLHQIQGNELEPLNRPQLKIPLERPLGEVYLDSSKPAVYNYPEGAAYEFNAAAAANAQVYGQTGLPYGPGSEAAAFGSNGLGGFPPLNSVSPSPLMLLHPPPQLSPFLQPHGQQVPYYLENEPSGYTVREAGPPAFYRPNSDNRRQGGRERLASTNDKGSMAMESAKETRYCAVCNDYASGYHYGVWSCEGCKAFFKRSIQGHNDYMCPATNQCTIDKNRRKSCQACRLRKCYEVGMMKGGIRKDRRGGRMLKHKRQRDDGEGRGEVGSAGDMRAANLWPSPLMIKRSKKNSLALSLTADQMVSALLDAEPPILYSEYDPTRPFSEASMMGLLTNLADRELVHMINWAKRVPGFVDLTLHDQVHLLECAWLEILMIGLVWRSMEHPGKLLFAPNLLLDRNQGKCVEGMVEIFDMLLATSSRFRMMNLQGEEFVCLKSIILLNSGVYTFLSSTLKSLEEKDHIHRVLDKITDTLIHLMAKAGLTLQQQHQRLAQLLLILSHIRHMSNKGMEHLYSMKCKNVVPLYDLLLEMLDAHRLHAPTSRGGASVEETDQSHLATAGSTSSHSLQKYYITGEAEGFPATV
Description: Estrogen receptor degradation activity: breast cancer cell ERα in cell western assay (MCF7 cells). The experiment is classed as cell-based. The settings on record: for % Degradation At 0.3 μM: 4 hours, relative to fulvestrant 0.1 μM positive control; for DC50: 4 hours post compound addition, concentration which degrades 50% of the estrogen receptor, read-out: Degradation IC50. An outline of the steps: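 Compounds were applied to MCF7 cells in stripped-serum, phenol red-free medium for 4 h at final 0.3–0.0000018 μM, with fulvestrant (0.1 μM) as control. Value: IC50 (nM) for 50% ERα degradation.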

For the molecule `O=C(O)c1ccc2c(c1)CCCC(c1nc(Cl)ccc1C(F)(F)F)=C2c1ccc(CC2CN(CCCF)C2)cc1` [Example 300, 8-(6-chloro-3-(trifluoromethyl)pyridin-2-yl)-9-(4-((1-(3-fluoropropyl)azetidin-3-yl)methyl)phenyl)-6,7-dihydro-5H-benzo[7]annulene-3-carboxylic acid], the “% Degradation At 0.3 μM” value stood at 88% and the DC50 stood at 11.2 nM.
The corresponding values for `O=C(O)c1ccc2c(c1)CCCC(c1ccc(F)cc1CC(F)(F)F)=C2c1ccc(CC2CN(CCCF)C2)cc1` [Example 272, 8-(4-fluoro-2-(2,2,2-trifluoroethyl)phenyl)-9-(4-((1-(3-fluoropropyl)azetidin-3-yl)methyl)phenyl)-6,7-dihydro-5H-benzo[7]annulene-3-carboxylic acid] are 90% and 0.6 nM.
The like results for `N#Cc1c(C(=O)O)ccc2c1CCCC(c1ccc(Cl)cc1Cl)=C2c1ccc(CC2CN(CCCF)C2)cc1.O=CO` [Example 246, 4-cyano-8-(2,4-dichlorophenyl)-9-(4-((1-(3-fluoropropyl)azetidin-3-yl)methyl)phenyl)-6,7-dihydro-5H-benzo[7]annulene-3-carboxylic acid, formic acid] were, in that order, 73% and 31.6 nM.
As for `COC(c1ccc(C2=C(c3ccc(Cl)cc3Cl)CCCc3cc(C(=O)O)ccc32)cc1)C1CN(CCCF)C1` (single isomer, unassigned; isomer 1) [Example 227, 8-(2,4-dichlorophenyl)-9-(4-((1-(3-fluoropropyl)azetidin-3-yl)(methoxy)methyl)phenyl)-6,7-dihydro-5H-benzo[7]annulene-3-carboxylic Acid Isomer 1], the “% Degradation At 0.3 μM” value is recorded as 75% and the DC50 stood at 0.6 nM.
The corresponding values for `O=C(O)c1ccc2c(c1)CCCC(c1cccc(Cl)c1C(F)(F)F)=C2c1ccc(CC2CN(CCC(F)F)C2)cc1` [Example 280, 8-(3-chloro-2-(trifluoromethyl)phenyl)-9-(4-((1-(3,3-difluoropropyl)azetidin-3-yl)methyl)phenyl)-6,7-dihydro-5H-benzo[7]annulene-3-carboxylic acid] are 86% and 0.3 nM.
The like results for `Cc1ccc(C2=C(c3ccc(CC4CN(CCCF)C4)cc3)c3ccc(C(=O)O)cc3CCC2)c(F)c1F.Cl` [Example 210, 8-(2,3-difluoro-4-methylphenyl)-9-(4-((1-(3-fluoropropyl)azetidin-3-yl)methyl)phenyl)-6,7-dihydro-5H-benzo[7]annulene-3-carboxylic acid hydrochloride] were, in that order, 88% and 0.3 nM.
The corresponding values for `COc1nc(C(F)(F)F)ccc1C1=C(c2ccc(CC3CN(CCCF)C3)cc2)c2ccc(C(=O)O)cc2CCC1` [Example 268, 9-(4-((1-(3-fluoropropyl)azetidin-3-yl)methyl)phenyl)-8-(2-methoxy-6-(trifluoromethyl)pyridin-3-yl)-6,7-dihydro-5H-benzo[7]annulene-3-carboxylic acid] are 89% and 0.5 nM.
For the molecule `O=C(O)c1ccc2c(c1)CCCC(c1ccc(Cl)cc1Cl)=C2c1ccc(CC2CN(CCC(F)F)C2)cc1` [Example 223, 8-(2,4-dichlorophenyl)-9-(4-((1-(3,3-difluoropropyl)azetidin-3-yl)methyl)phenyl)-6,7-dihydro-5H-benzo[7]annulene-3-carboxylic acid], the “% Degradation At 0.3 μM” value is listed as 92% and the DC50 is 0.2 nM.
